ChEMBL document CHEMBL5335813, “Gausemycin Antibiotic Family Acts via Ca2+-Dependent Membrane Targeting” (2024)
Converted amounts (≈) assume the structure as drawn. The source made the active and inactive calls.

How the values were obtained:
Staphylococcus aureus [1] = assay: Antimicrobial activity against Staphylococcus aureus ATCC 29213 assessed as microbial growth inhibition at pH 5 to 6 by susceptibility testing method; format: functional, organism-based
Staphylococcus aureus [2] = assay: Antimicrobial activity against Staphylococcus aureus ATCC 29213 assessed as microbial growth inhibition measured after 18 hrs by CLSI based broth microdilution method; format: functional
Staphylococcus aureus [3] = assay: Antimicrobial activity against Staphylococcus aureus ATCC 29213 assessed as microbial growth inhibition at pH 5 by susceptibility testing method; format: functional
Staphylococcus aureus [4] = assay: Antimicrobial activity against Staphylococcus aureus ATCC 29213 assessed as microbial growth inhibition at pH 6 by susceptibility testing method; format: functional
Staphylococcus aureus [5] = assay: Antimicrobial activity against Staphylococcus aureus ATCC 29213 assessed as microbial growth inhibition at pH 7 by susceptibility testing method; format: functional
Staphylococcus aureus [6] = assay: Antimicrobial activity against Staphylococcus aureus ATCC 29213 assessed as microbial growth inhibition at pH 7.4 by susceptibility testing method; format: functional
Staphylococcus aureus [7] = assay: Antimicrobial activity against Staphylococcus aureus ATCC 29213 assessed as microbial growth inhibition at pH 8 by susceptibility testing method; format: functional
Staphylococcus aureus [8] = assay: Antimicrobial activity against Staphylococcus aureus ATCC 29213 assessed as microbial growth inhibition at pH 9 by susceptibility testing method; format: functional
Staphylococcus aureus [9] = assay: Antimicrobial activity against Staphylococcus aureus ATCC 29213 assessed as microbial growth inhibition at pH 10 by susceptibility testing method; format: functional
Staphylococcus aureus [10] = assay: Antimicrobial activity against Staphylococcus aureus ATCC 29213 assessed as microbial growth inhibition in presence of Na+ by susceptibility testing method; format: functional
Staphylococcus aureus [11] = assay: Antimicrobial activity against Staphylococcus aureus ATCC 29213 assessed as microbial growth inhibition in presence of K+ by susceptibility testing method; format: functional
Staphylococcus aureus [12] = assay: Antimicrobial activity against Staphylococcus aureus ATCC 29213 assessed as microbial growth inhibition in presence of Mg2+ by susceptibility testing method; format: functional
Staphylococcus aureus [13] = assay: Antimicrobial activity against Staphylococcus aureus ATCC 29213 assessed as microbial growth inhibition in presence of Mn2+ by susceptibility testing method; format: functional
Staphylococcus aureus [14] = assay: Antimicrobial activity against Staphylococcus aureus ATCC 29213 assessed as microbial growth inhibition in presence of Zn2+ by susceptibility testing method; format: functional
Staphylococcus aureus [15] = assay: Antimicrobial activity against Staphylococcus aureus ATCC 29213 assessed as microbial growth inhibition in presence of Cu2+ by susceptibility testing method; format: functional
Staphylococcus aureus [16] = assay: Antimicrobial activity against Staphylococcus aureus ATCC 29213 assessed as microbial growth inhibition in presence of Fe3+ by susceptibility testing method; format: functional
Staphylococcus aureus [17] = assay: Antimicrobial activity against Staphylococcus aureus ATCC 29213 assessed as microbial growth inhibition in presence of Ca2+ by susceptibility testing method; format: functional
Escherichia coli [18] = assay: Antimicrobial activity against Escherichia coli BL21 (DE3) assessed as microbial growth inhibition in presence of Ca2+ by susceptibility testing method; format: functional, organism-based
Escherichia coli [19] = assay: Antimicrobial activity against Escherichia coli expressing delta-tolC/KanR assessed as microbial growth inhibition in presence of Ca2+ by susceptibility testing method; format: functional, organism-based
Pseudomonas aeruginosa = assay: Antimicrobial activity against Pseudomonas aeruginosa assessed as microbial growth inhibition in presence of Ca2+ by susceptibility testing method; format: functional, organism-based
Micrococcus luteus = assay: Antimicrobial activity against Micrococcus luteus assessed as microbial growth inhibition in presence of Ca2+ by susceptibility testing method; format: functional, organism-based
Macrococcus caseolyticus = assay: Antimicrobial activity against Macrococcus caseolyticus assessed as microbial growth inhibition in presence of Ca2+ by susceptibility testing method; format: functional, organism-based; settings: Macrococcoides caseolyticum
Bacillus cereus = assay: Antimicrobial activity against Bacillus cereus X1 assessed as microbial growth inhibition in presence of Ca2+ by susceptibility testing method; format: functional, organism-based
Staphylococcus aureus [20] = assay: Antimicrobial activity against Staphylococcus aureus ATCC 29213 assessed as microbial growth inhibition in presence of (B4O7)2- by susceptibility testing method; format: functional
Staphylococcus aureus [21] = assay: Antimicrobial activity against Staphylococcus aureus ATCC 29213 assessed as microbial growth inhibition in presence of (CH3CO2)- by susceptibility testing method; format: functional
Staphylococcus aureus [22] = assay: Antimicrobial activity against Staphylococcus aureus ATCC 29213 assessed as microbial growth inhibition in presence of (HCO3)- by susceptibility testing method; format: functional
Staphylococcus aureus [23] = assay: Antimicrobial activity against Staphylococcus aureus ATCC 29213 assessed as microbial growth inhibition in presence of (H2PO4)-/(HPO4)2- by susceptibility testing method; format: functional
Staphylococcus aureus [24] = assay: Antimicrobial activity against Staphylococcus aureus ATCC 29213 assessed as microbial growth inhibition by susceptibility testing method; format: functional
Staphylococcus aureus [25] = assay: Antimicrobial activity against Staphylococcus aureus ATCC 29213 assessed as microbial growth inhibition in presence of <=200 mM of (H2PO4)-/(HPO4)2- by susceptibility testing method; format: functional, organism-based
Lipid bilayer [26] = assay: Induction of pore formation in zwitter-ionic DOPC lipid bilayer membrane model at 1 to 100 ug/ml; settings: dose 1-100 µg/ml
Lipid bilayer [27] = assay: Induction of pore formation in anionic DOPC/DOPG lipid bilayer membrane model at 1 to 100 ug/ml; settings: dose 1-100 µg/ml
Lipid bilayer [28] = assay: Induction of pore formation in anionic DPhPG lipid bilayer membrane model at 1 to 100 ug/ml; settings: dose 1-100 µg/ml
Lipid bilayer [29] = assay: Induction of pore formation in anionic TOCL lipid bilayer membrane model at 1 to 100 ug/ml; settings: dose 1-100 µg/ml
Lipid bilayer [30] = assay: Induction of pore formation in anionic TMoCL lipid bilayer membrane model at 1 to 100 ug/ml; settings: dose 1-100 µg/ml
Lipid bilayer [31] = assay: Induction of pore formation in cationic DOPC/DOTAP lipid bilayer membrane model at 1 to 100 ug/ml; settings: dose 1-100 µg/ml
Lipid bilayer [32] = assay: Induction of pore formation in anionic DOPC/DOPG lipid bilayer membrane model at 1 to 100 ug/ml in presence of CaCl2; settings: dose 1-100 µg/ml
Lipid bilayer [33] = assay: Induction of pore formation in cationic DOPC/DOTAP lipid bilayer membrane model at 1 to 100 ug/ml in presence of CaCl2; settings: dose 1-100 µg/ml
Lipid bilayer [34] = assay: Induction of pore formation in anionic DPhPG lipid bilayer membrane model at 1 to 100 ug/ml in presence of CaCl2; settings: dose 1-100 µg/ml
Lipid bilayer [35] = assay: Induction of pore formation in anionic TOCL lipid bilayer membrane model at 1 to 100 ug/ml in presence of CaCl2; settings: dose 1-100 µg/ml
Lipid bilayer [36] = assay: Induction of pore formation in anionic TMoCL lipid bilayer membrane model assessed as pore-forming threshold concentration
Lipid bilayer [37] = assay: Induction of pore formation in anionic TMoCL lipid bilayer membrane model assessed as pore-forming threshold concentration in presence of CaCl2

NC[C@H]1O[C@H](O[C@H]2[C@H](O)[C@@H](O[C@H]3O[C@H](CO)[C@@H](O)[C@H](N)[C@H]3O)[C@H](N)C[C@@H]2N)[C@H](N)C[C@@H]1O
growth inhibition (GI) (Staphylococcus aureus [1]): Active

CC(C)/C=C/C=C\C(=O)NCCC(=O)N[C@@H](CCCNC(=O)CCN)C(=O)NC(CC(O)c1ccccc1)C(=O)NC(C(=O)N[C@@H](Cc1ccc(O)cc1)C(=O)NC1C(=O)N[C@H](CC(C)C)C(=O)N[C@@H](CC(=O)O)C(=O)NCC(=O)N[C@@H](CO)C(=O)NCC(=O)N[C@@H](CC(=O)c2ccc(Cl)cc2N)C(=O)N[C@@H](C)C(=O)N2CCC[C@H]2C(=O)NC1C)C(O)CC(=O)O (some centres undefined)
MIC (Staphylococcus aureus [2]): 8 mg/L (≈ 4.48 µM)

CC(C)/C=C/C=C\C(=O)NCCC(=O)N[C@@H](CCCN)C(=O)NC(CC(O)c1ccccc1)C(=O)NC(C(=O)N[C@@H](Cc1ccc(OC2OC[C@H](O)[C@H](O)[C@H]2O)cc1)C(=O)NC1C(=O)N[C@H](CC(C)C)C(=O)N[C@@H](CC(=O)O)C(=O)NCC(=O)N[C@@H](CO)C(=O)NCC(=O)N[C@@H](CC(=O)c2ccc(Cl)cc2N)C(=O)N[C@@H](C)C(=O)N2CCC[C@H]2C(=O)NC1C)C(O)CC(=O)O (some centres undefined)
MIC (Staphylococcus aureus [2]): 1 mg/L (≈ 0.541 µM) | MIC (Staphylococcus aureus [3]): 4 mg/L (≈ 2.17 µM) | MIC (Staphylococcus aureus [4]): 4 mg/L (≈ 2.17 µM) | MIC (Staphylococcus aureus [5]): 2 mg/L (≈ 1.08 µM) | MIC (Staphylococcus aureus [6]): 1 mg/L (≈ 0.541 µM) | MIC (Staphylococcus aureus [7]): 1 mg/L (≈ 0.541 µM) | MIC (Staphylococcus aureus [8]): 0.5 mg/L (≈ 0.271 µM) | MIC (Staphylococcus aureus [9]): 0.25 mg/L (≈ 0.135 µM) | MIC (Staphylococcus aureus [10]): 1 mg/L | MIC (Staphylococcus aureus [11]): 1 mg/L | MIC (Staphylococcus aureus [12]): 1 mg/L | MIC (Staphylococcus aureus [13]): 1 mg/L | MIC (Staphylococcus aureus [14]): 1 mg/L | MIC (Staphylococcus aureus [15]): 1 mg/L | MIC (Staphylococcus aureus [16]): 1 mg/L | MIC (Staphylococcus aureus [17]): 0.125 mg/L | inhibition (Escherichia coli [18]): inactive | inhibition (Escherichia coli [19]): inactive | inhibition (Pseudomonas aeruginosa): inactive | inhibition (Micrococcus luteus): Active | inhibition (Macrococcus caseolyticus): Active | inhibition (Bacillus cereus): Active | MIC (Staphylococcus aureus [20]): 1 mg/L | MIC (Staphylococcus aureus [21]): 2 mg/L | MIC (Staphylococcus aureus [22]): 0.5 mg/L | MIC (Staphylococcus aureus [23]): 4 mg/L | MIC (Staphylococcus aureus [24]): 1 mg/L (≈ 0.541 µM) | Activity (Staphylococcus aureus [25]): inactive | Activity (Lipid bilayer [26]): inactive | Activity (Lipid bilayer [27]): Active | Activity (Lipid bilayer [28]): Active | Activity (Lipid bilayer [29]): Active | Activity (Lipid bilayer [30]): Active | Activity (Lipid bilayer [31]): Active | Activity (Lipid bilayer [32]): Active | Activity (Lipid bilayer [33]): Active | Activity (Lipid bilayer [34]): Active | Activity (Lipid bilayer [35]): Active | Activity (Lipid bilayer [36]): 10 µg/mL | Activity (Lipid bilayer [37]): 7 µg/mL

NCC[C@H](O)C(=O)N[C@@H]1C[C@H](N)[C@@H](O[C@H]2O[C@H](CN)[C@@H](O)[C@H](O)[C@H]2O)[C@H](O)[C@H]1O[C@H]1O[C@H](CO)[C@@H](O)[C@H](N)[C@H]1O
growth inhibition (GI) (Staphylococcus aureus [1]): Active

CC(C)/C=C/C=C\C(=O)NCCC(=O)N[C@@H](CCCN)C(=O)NC(CC(O)c1ccccc1)C(=O)NC(C(=O)N[C@@H](Cc1ccc(O)cc1)C(=O)NC1C(=O)N[C@H](CC(C)C)C(=O)N[C@@H](CC(=O)O)C(=O)NCC(=O)N[C@@H](CO)C(=O)NCC(=O)N[C@@H](CC(=O)c2ccc(Cl)cc2N)C(=O)N[C@@H](C)C(=O)N2CCC[C@H]2C(=O)NC1C)C(O)CC(=O)O (some centres undefined)
MIC (Staphylococcus aureus [2]): 8 mg/L (≈ 4.66 µM)
